This is an account of results in PubChem BioAssay AID252 (DTP/NCI, 2004).

SMILES strings stand for the structures. Values joined by “and” are separate entries in the source; they are usually repeats but may differ in a detail not shown here. Identical values can stand only once. Inconclusive results and toxic doses are left out.

The assay deals with BDF1 mice, intracerebral L1210 leukemia, survival T/C. The experiment in a line: NCI In Vivo Anticancer Drug Screen. Data for tumor model L1210 Leukemia (intracerebral) in B6D2F1 (BDF1) mice. As to conditions: higher = longer survival. Summed up:
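Mice carrying transplanted tumour were dosed with compound; survival was recorded and expressed as treated-group value (T) divided by vehicle-control value (C).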

As to `COc1cccc2c1C(=O)c1c(O)c3c(c(O)c1C2=O)C[C@@](O)(C(=O)CO)C[C@@H]3OC1CC(N)C(O)C(C)O1` (stereo partly specified), the T/C was 106 % of control (endpoint: mean survival time, dose: 0.05 mg/kg/injection, schedule: Q03HX024 (ip), vehicle: saline); 103 % of control (endpoint: mean survival time, dose: 0.1 mg/kg/injection, schedule: Q03HX024 (ip), vehicle: saline); 100 % of control (endpoint: mean survival time, dose: 0.2 mg/kg/injection, schedule: Q03HX024 (ip), vehicle: saline); 102 % of control (endpoint: mean survival time, dose: 0.4 mg/kg/injection, schedule: Q03HX024 (ip), vehicle: saline); 104 % of control (endpoint: mean survival time, dose: 0.5 mg/kg/injection, schedule: Q01DX005 (ip), vehicle: saline); 101 % of control (endpoint: mean survival time, dose: 0.5 mg/kg/injection, schedule: Q01DX009 (ip), vehicle: saline). In addition, the T/C was 105 % of control (endpoint: mean survival time, dose: 0.5 mg/kg/injection, schedule: Q04DX003 (ip), vehicle: saline); 101 % of control (endpoint: mean survival time, dose: 0.8 mg/kg/injection, schedule: Q03HX024 (ip), vehicle: saline); 104 % of control (endpoint: mean survival time, dose: 1.0 mg/kg/injection, schedule: Q01DX005 (ip), vehicle: saline); 102 % of control (endpoint: mean survival time, dose: 1.0 mg/kg/injection, schedule: Q01DX009 (ip), vehicle: saline); 102 % of control (endpoint: mean survival time, dose: 1.0 mg/kg/injection, schedule: Q04DX003 (ip), vehicle: saline); 107 % of control (endpoint: mean survival time, dose: 2.0 mg/kg/injection, schedule: Q01DX005 (ip), vehicle: saline). Further, the T/C is 101 % of control (endpoint: mean survival time, dose: 2.0 mg/kg/injection, schedule: Q01DX009 (ip), vehicle: saline); 101 % of control (endpoint: mean survival time, dose: 2.0 mg/kg/injection, schedule: Q04DX003 (ip), vehicle: saline); 106 % of control (endpoint: mean survival time, dose: 4.0 mg/kg/injection, schedule: Q01DX005 (ip), vehicle: saline); 108 % of control (endpoint: mean survival time, dose: 4.0 mg/kg/injection, schedule: Q04DX003 (ip), vehicle: saline); 100 % of control (endpoint: mean survival time, dose: 8.0 mg/kg/injection, schedule: Q04DX003 (ip), vehicle: saline).
As for `O=NN(CCCl)C(=O)NC1CC2CCC1C2` (stereo unspecified), the T/C reads like this: (endpoint: mean survival time, dose: 14.5 mg/kg/injection, schedule: Q01DX001 (ip), vehicle: other) 124 % of control; (endpoint: mean survival time, dose: 26.0 mg/kg/injection, schedule: Q01DX001 (ip), vehicle: carboxymethylcellulose (CMC)) 196 % of control; (endpoint: mean survival time, dose: 29.25 mg/kg/injection, schedule: Q01DX001 (oral), vehicle: other) 162 % of control and 176 % of control and 191 % of control; (endpoint: mean survival time, dose: 39.0 mg/kg/injection, schedule: Q01DX001 (ip), vehicle: other) 236 % of control; (endpoint: mean survival time, dose: 41.0 mg/kg/injection, schedule: Q01DX001 (ip), vehicle: carboxymethylcellulose (CMC)) 247 % of control and 265 % of control; (endpoint: mean survival time, dose: 58.5 mg/kg/injection, schedule: Q01DX001 (oral), vehicle: other) 306 % of control and 356 % of control and 442 % of control. In addition, the T/C reads like this: (endpoint: mean survival time, dose: 62.0 mg/kg/injection, schedule: Q01DX001 (ip), vehicle: carboxymethylcellulose (CMC)) 303 % of control and 306 % of control; (endpoint: mean survival time, dose: 87.0 mg/kg/injection, schedule: Q01DX001 (ip), vehicle: other) 151 % of control; (endpoint: mean survival time, dose: 93.0 mg/kg/injection, schedule: Q01DX001 (ip), vehicle: carboxymethylcellulose (CMC)) 188 % of control and 268 % of control; (endpoint: mean survival time, dose: 117.0 mg/kg/injection, schedule: Q01DX001 (oral), vehicle: other) 111 % of control and 154 % of control and 294 % of control; (endpoint: mean survival time, dose: 139.0 mg/kg/injection, schedule: Q01DX001 (ip), vehicle: carboxymethylcellulose (CMC)) 105 % of control and 101 % of control.
Turning to `CS(C)=O`, the T/C is 102 % of control (endpoint: mean survival time, dose: 0.5 mg/kg/injection, schedule: Q#C X009 (adlb), vehicle: water); 102 % of control (endpoint: mean survival time, dose: 1.0 mg/kg/injection, schedule: Q#C X009 (adlb), vehicle: water); 101 % of control (endpoint: mean survival time, dose: 2.0 mg/kg/injection, schedule: Q#C X009 (adlb), vehicle: water); 101 % of control (endpoint: mean survival time, dose: 4.0 mg/kg/injection, schedule: Q#C X009 (adlb), vehicle: water); 98 % of control (endpoint: mean survival time, dose: 8.0 mg/kg/injection, schedule: Q#C X009 (adlb), vehicle: water); 110 % of control (endpoint: mean survival time, dose: 10.0 mg/kg/injection, schedule: Q01DX001 (ip), vehicle: DMSO). Moreover, the T/C reads like this: (endpoint: mean survival time, dose: 25.0 mg/kg/injection, schedule: Q01DX001 (ip), vehicle: DMSO) 101 % of control; (endpoint: mean survival time, dose: 35.0 mg/kg/injection, schedule: Q01DX001 (ip), vehicle: DMSO) 101 % of control; (endpoint: mean survival time, dose: 50.0 mg/kg/injection, schedule: Q01DX001 (ip), vehicle: DMSO) 101 % of control; (endpoint: mean survival time, dose: 0.5 % drug in feed or water or air, schedule: Q#C X009 (oral), vehicle: other) 102 % of control; (endpoint: mean survival time, dose: 1.0 % drug in feed or water or air, schedule: Q#C X009 (oral), vehicle: other) 102 % of control; (endpoint: mean survival time, dose: 1.0 grams/kg/injection, schedule: Q01DX001 (ip), vehicle: Klucel (hydroxypropylcellulose) (HPC)) 110 % of control. Also, the T/C by setting is: (endpoint: mean survival time, dose: 2.0 % drug in feed or water or air, schedule: Q#C X009 (oral), vehicle: other) 101 % of control; (endpoint: mean survival time, dose: 2.1 grams/kg/injection, schedule: Q01DX001 (ip), vehicle: Klucel (hydroxypropylcellulose) (HPC)) 101 % of control; (endpoint: mean survival time, dose: 4.0 % drug in feed or water or air, schedule: Q#C X009 (oral), vehicle: other) 101 % of control; (endpoint: mean survival time, dose: 8.0 % drug in feed or water or air, schedule: Q#C X009 (oral), vehicle: other) 98 % of control; (endpoint: median survival time, dose: 1.0 mg/kg/injection, schedule: Q#C X009 (oral), vehicle: water) 103 % of control and 118 % of control; (endpoint: median survival time, dose: 2.0 mg/kg/injection, schedule: Q#C X009 (oral), vehicle: water) 101 % of control (2×) and 105 % of control. The T/C was 103 % of control and 107 % of control and 98 % of control (endpoint: median survival time, dose: 4.0 mg/kg/injection, schedule: Q#C X009 (oral), vehicle: water); 101 % of control and 83 % of control and 97 % of control (endpoint: median survival time, dose: 8.0 mg/kg/injection, schedule: Q#C X009 (oral), vehicle: water).
Take `CCCCCCCCCCCCCCCC(=O)Nc1ccn(C2OC(CO)C(O)C2O)c(=O)n1` (stereo unspecified): the T/C (endpoint: median survival time, dose: 12.5 mg/kg/injection, schedule: Q01DX009 (ip), vehicle: distilled water + Tween-80 + alcohol) was 214 % of control and the T/C (endpoint: median survival time, dose: 25.0 mg/kg/injection, schedule: Q01DX009 (ip), vehicle: distilled water + Tween-80 + alcohol) was 269 % of control.
For the compound `CC(=O)OCC1OC(n2cnc3c(=S)nc(N)[nH]c32)C(OC(C)=O)C1OC(C)=O` (stereo unspecified), for the setting “endpoint: mean survival time, dose: 37.5 mg/kg/injection, schedule: Q01DX Z (ip), vehicle: other”, the T/C was 122 % of control.
For the compound `N=c1nc2n(cc1F)[C@@H]1O[C@H](CO)[C@@H](O)[C@@H]1O2`, the T/C (endpoint: median survival time, dose: 100.0 mg/kg/injection, schedule: Q01DX009 (ip), vehicle: saline) was 186 % of control; the T/C (endpoint: median survival time, dose: 200.0 mg/kg/injection, schedule: Q01DX009 (ip), vehicle: saline) was 204 % of control; the T/C (endpoint: median survival time, dose: 400.0 mg/kg/injection, schedule: Q01DX009 (ip), vehicle: saline) is 344 % of control.
Take `CC(C)(C)C1CCC(NC(=O)N(CCCl)N=O)CC1` (stereo unspecified): the T/C (endpoint: mean survival time, dose: 177.0 mg/kg/injection, schedule: Q01DX001 (ip), vehicle: other) was 170 % of control; the T/C (endpoint: mean survival time, dose: 250.0 mg/kg/injection, schedule: Q01DX001 (ip), vehicle: other) was 156 % of control and 158 % of control; the T/C (endpoint: mean survival time, dose: 354.0 mg/kg/injection, schedule: Q01DX001 (ip), vehicle: other) is 247 % of control; the T/C (endpoint: mean survival time, dose: 375.0 mg/kg/injection, schedule: Q01DX001 (ip), vehicle: other) is 196 % of control and 210 % of control; the T/C (endpoint: mean survival time, dose: 472.0 mg/kg/injection, schedule: Q01DX001 (ip), vehicle: other) is 155 % of control; the T/C (endpoint: mean survival time, dose: 500.0 mg/kg/injection, schedule: Q01DX001 (ip), vehicle: other) is 186 % of control and 201 % of control. Moreover, the T/C reads like this: (endpoint: mean survival time, dose: 708.0 mg/kg/injection, schedule: Q01DX001 (ip), vehicle: other) 86 % of control; (endpoint: mean survival time, dose: 750.0 mg/kg/injection, schedule: Q01DX001 (ip), vehicle: other) 152 % of control.
`CCCCCCCCCCCCCCCCCCCCCC(=O)Nc1ccn(C2OC(CO)C(O)C2O)c(=O)n1` (stereo unspecified): the T/C is 208 % of control (endpoint: median survival time, dose: 25.0 mg/kg/injection, schedule: Q01DX009 (ip), vehicle: saline with Tween-80); 162 % of control (endpoint: median survival time, dose: 50.0 mg/kg/injection, schedule: Q01DX009 (ip), vehicle: saline with Tween-80); 198 % of control (endpoint: median survival time, dose: 100.0 mg/kg/injection, schedule: Q01DX009 (ip), vehicle: saline with Tween-80); 250 % of control (endpoint: median survival time, dose: 200.0 mg/kg/injection, schedule: Q01DX009 (ip), vehicle: saline with Tween-80); 96 % of control (endpoint: median survival time, dose: 400.0 mg/kg/injection, schedule: Q01DX009 (ip), vehicle: saline with Tween-80).
For the compound `C[C@@H]1CN1C1=CC(=O)C(N2C[C@H]2C)=CC1=O`, the T/C (endpoint: mean survival time, dose: 8.0 mg/kg/injection, schedule: Q01DX009 (ip), vehicle: Klucel (hydroxypropylcellulose) (HPC)) was 95 % of control.
As for `CN(N=O)C(=O)Nc1ccc(NC(=O)N(C)N=O)cc1`, the T/C (endpoint: mean survival time, dose: 4.5 mg/kg/injection, schedule: Q01DX001 (ip), vehicle: carboxymethylcellulose (CMC)) is 93 % of control; the T/C (endpoint: mean survival time, dose: 9.0 mg/kg/injection, schedule: Q01DX001 (ip), vehicle: carboxymethylcellulose (CMC)) is 98 % of control; the T/C (endpoint: mean survival time, dose: 18.0 mg/kg/injection, schedule: Q01DX001 (ip), vehicle: carboxymethylcellulose (CMC)) is 98 % of control.
